Experimental data published in patent US11458127B2, “Methods of treating brain tumors using combination therapy” (SERVIER PHARMACEUTICALS LLC, priority 2017, dated 2022).
Read-outs that look alike come from different tables or passages of the source.

Key:
mutant IDH1 (mIDH1) = conditions: cited from earlier work
mutant IDH2 (mIDH2) = conditions: cited from earlier work
mIDH1-driven gliomas = conditions: some model systems; D. Rohle et al. 2013; cited from earlier work
mIDH1 cells = conditions: in vitro; R. J. Molenaar et al. 2015; cited from earlier work
mutant IDH1 proteins [1] = conditions: biochemical assays; cited from earlier work
mutant IDH1 proteins [2] = conditions: cellular assays; cited from earlier work
2HG production = test: animal or person; conditions: po, read-out: Inhibition of 2HG production within the brain tumors
Method: Ivosidenib was orally dosed at 150 mg/kg, twice daily, for Groups 3-5.

Row | SMILES | Inhibition of mutant IDH1 (mutant IDH1 (mIDH1)) | Inhibition of mutant IDH2 (mutant IDH2 (mIDH2)) | Effect on growth of mIDH1-driven gliomas (mIDH1-driven gliomas) | Sensitivity of treated mIDH1 cells to radiation therapy (mIDH1 cells) | Activity on mutant IDH1 proteins (mutant IDH1 proteins [1]) | Activity on mutant IDH1 proteins (mutant IDH1 proteins [2]) | inhibition at 150 mg/kg (2HG production)
1 | Cc1ccccc1C(C(=O)NC1CCCCC1)N(C(=O)Cn1ccnc1C)c1cccc(F)c1 (stereo not shown) [AGI-5198] | inhibit mutant IDH1 (mIDH1) | not mutant IDH2 (mIDH2) | can repress growth of mIDH1-driven gliomas in some model systems | desensitized to radiation therapy | – | – | –
2 | N#Cc1ccnc(N2C(=O)CC[C@H]2C(=O)N(c2cncc(F)c2)[C@H](C(=O)NC2CC(F)(F)C2)c2ccccc2Cl)c1 [Ivosidenib, (S)—N—((S)-1-(2-Chlorophenyl)-2-(3,3-difluorocyclobutylamino)-2-oxoethyl)-1-(4-cyanopyridin-2-yl)-N-(5-fluoropyridin-3-yl)-5-oxopyrrolidine-2-carboxamide] | – | – | – | – | inhibitor of mutant IDH1 proteins | inhibitor of mutant IDH1 proteins | > 98%
